This note sets out measurements from US10456379B2, “Imidazole-based antimicrobial agents” (priority 2014, dated 2019).

Data set [1] deals with Staphylococcus aureus MRSA (COL). In words: Broth microdilution MIC assay, Staphylococcus aureus MRSA (COL). The data set is classed as cell-based. The conditions noted are these: for Antibacterial activity Staphylococcus aureus (MRSA): MIC class score, MIC100, broth microdilution, COL strain; for MIC: Staphylococcus aureus, MRSA, read-out: Antibacterial activity, MRSA (Staphylococcus aureus MRSA), MIC class. Background: In broth dilution the organism is exposed to a series of concentrations in liquid medium.

The test system of data set [2] is Staphylococcus aureus MSSA (Newman). As to the kind of experiment: Broth microdilution MIC assay, Staphylococcus aureus MSSA (Newman). The data set is classed as cell-based.
Data set [3] has as its system Streptococcus pneumoniae (Chester, ATCC49619). As to the kind of experiment: Broth microdilution MIC assay, Streptococcus pneumoniae. The data set is classed as cell-based. Conditions: for MIC: Streptococcus pneumoniae, ATCC49619, read-out: Antibacterial activity, SP (Streptococcus pneumoniae), MIC class; for Antibacterial activity Streptococcus pneumoniae: MIC class score, MIC100, broth microdilution.

Data set [4] concerns Mycobacterium smegmatis (mc(2)155). In words: Broth microdilution MIC assay, Mycobacterium smegmatis.
Data set [5] relates to vancomycin-resistant Enterococcus faecium (ATCC51559). In words: microbe, parasite or virus in culture. The data set is classed as cell-based.
Data set [6] relates to Staphylococcus epidermidis (PCI 1200, ATCC12228). As to the kind of experiment: Broth microdilution MIC assay, Staphylococcus epidermidis. The data set is classed as cell-based. Conditions: read-out: Antibacterial activity, SE (Staphylococcus epidermidis), MIC class.
Data set [7] deals with linezolid-resistant Staphylococcus aureus (from MRSA COL). In words: Broth microdilution MIC assay, linezolid-resistant MRSA. The data set is classed as cell-based. The conditions noted are these: 24 h, read-out: Antibacterial activity, MRSA strains with additional resistance, L (linezolid), MIC class.
The subject of data set [8] is Enterococcus faecalis (ATCC29212). As to the kind of experiment: Broth microdilution MIC assay, Enterococcus faecalis. The data set is classed as cell-based. Conditions: read-out: Antibacterial activity, EFs (Enterococcus faecalis), MIC class.
The test system of data set [9] is daptomycin-resistant Staphylococcus aureus (from MRSA COL). In words: Broth microdilution MIC assay, daptomycin-resistant MRSA. The data set is classed as cell-based. The conditions noted are these: 24 h, read-out: Antibacterial activity, MRSA strains with additional resistance, D (daptomycin), MIC class.
Data set [10] concerns vancomycin-resistant Enterococcus faecalis (ATCC51575). In words: microbe, parasite or virus in culture. Conditions: ATCC51575; vancomycin-resistant Enterococcus faecalis; read-out: Antibacterial activity, VREFs (vancomycin-resistant EFs), MIC class. The data set is classed as cell-based.
In data set [11] the test system is Enterococcus faecium (AGR15, ATCCBAA-2127). As to the kind of experiment: Broth microdilution MIC assay, Enterococcus faecium. Conditions: ATCCBAA2127, read-out: Antibacterial activity, EFm (Enterococcus faecium), MIC class. The data set is classed as cell-based.
For data set [12], the system named is MRSA (COL) resistant to triclosan. In words: Broth microdilution MIC assay, triclosan-resistant MRSA. The conditions noted are these: Staphylococcus aureus, read-out: Antibacterial activity, MRSA strains with additional resistance, T (triclosan), MIC class.
Data set [13] relates to platensimycin-resistant Staphylococcus aureus (from MRSA COL). As to the kind of experiment: Broth microdilution MIC assay, platensimycin-resistant MRSA. The data set is classed as cell-based. The conditions noted are these: 24 h, read-out: Antibacterial activity, MRSA strains with additional resistance, P (platensimycin), MIC class.
[14] abbreviates: ATCC51559, vancomycin-resistant Enterococcus faecium, read-out: Antibacterial activity, VREFm (vancomycin-resistant EFm), MIC class.

≈ marks a conversion by molar mass, not a printed value. Where two headings read alike, the source gives them in different places. A value given as a limit tells only on which side of the number the result lay.

On to `Cc1ccccc1-c1cnc(-c2ccc(-c3ccccc3C(F)(F)F)o2)[nH]1` [compound 69], for which the “Antibacterial activity Staphylococcus aureus (MRSA)” value in [1] was 2 (MIC100 of 11-20 μg/ml). Further, the MIC in [2] (Staphylococcus aureus, read-out: Antibacterial activity, MSSA (Staphylococcus aureus MSSA), MIC class) was 11 to 20 µg/mL (≈ 29.9 to 54.3 µM); in data set [3], less than 1 µg/mL; in data set [5] (setting [14]), 20 to 50 µg/mL (≈ 54.3 to 136 µM). Besides, the “Antibacterial activity, MS (Mycobacterium smegmatis), MIC class” value (shortened to “Antibacterial activity, MS”) in data set [4] is recorded as 2 (MIC100 of 11-20 μg/ml).

Consider `Cc1[nH]c(-c2ccc(-c3ccccc3Cl)o2)nc1-c1ccccc1` [compound 3], for which the MIC is 11 to 20 µg/mL (≈ 32.9 to 59.7 µM) in [1], less than 1 µg/mL in [3] and 11 to 20 µg/mL (≈ 32.9 to 59.7 µM) in [6].

On to `Cc1[nH]c(-c2ccc(-c3cccc(F)c3C)o2)nc1-c1ccccc1` [compound 60], for which the MIC in data set [7] was in the range of 1 to 3 µg/mL (≈ 3.01 to 9.03 µM); in data set [8], 20 to 50 µg/mL (≈ 60.2 to 150 µM); in data set [9] it was 1 to 3 µg/mL (≈ 3.01 to 9.03 µM). In addition, the “Antibacterial activity Streptococcus pneumoniae” value in [3] is 3 (MIC100 of 2-5 μg/ml). In [4], the “Antibacterial activity, MS” value is listed as 2 (MIC100 of 11-20 μg/ml).

As to `Cc1nc(-c2ccc(-c3ccccc3OC(F)(F)F)o2)[nH]c1-c1ccccc1Cl` [compound 19], the MIC was 3 to 10 µg/mL (≈ 7.16 to 23.9 µM) in data set [7]; less than 1 µg/mL in [3]; 20 to 50 µg/mL (≈ 47.8 to 119 µM) in data set [5] (Enterococcus faecium, ATCC51559, read-out: Antibacterial activity, VREFm (vancomycin-resistant EFm), MIC class); 3 to 10 µg/mL (≈ 7.16 to 23.9 µM) in data set [9]. The “Antibacterial activity, MS” value in data set [4] was 2 (MIC100 of 11-20 μg/ml).

Regarding `Cc1[nH]c(-c2ccc(-c3cccc(Cl)c3Cl)o2)nc1-c1ccccc1` [compound 2], the MIC in [10] is 20 to 50 µg/mL (≈ 54.2 to 135 µM); in [9] it was 3 to 10 µg/mL (≈ 8.12 to 27.1 µM). Besides, the “Antibacterial activity Streptococcus pneumoniae” value in data set [3] is 3 (MIC100 of 2-5 μg/ml).

For `FC(F)(F)Oc1ccccc1-c1ccc(-c2nc(-c3ccccc3Cl)c[nH]2)o1` [compound 67], the MIC in [3] was 2 to 5 µg/mL (≈ 4.94 to 12.4 µM); in data set [6], 11 to 20 µg/mL (≈ 27.2 to 49.4 µM).

On to `Cc1nc(-c2ccc(-c3ccc(Cl)c(OC(F)(F)F)c3)o2)[nH]c1-c1ccc(Cl)cc1` [compound 44], for which, in data set [1], the “Antibacterial activity Staphylococcus aureus (MRSA)” value is given as 2 (MIC100 of 11-20 μg/ml). Further, the MIC is 20 to 50 µg/mL (≈ 44.1 to 110 µM) in data set [11]; 11 to 20 µg/mL (≈ 24.3 to 44.1 µM) in data set [10]; less than 1 µg/mL in [3]; 11 to 20 µg/mL (≈ 24.3 to 44.1 µM) in data set [5] (setting [14]); 20 to 50 µg/mL (≈ 44.1 to 110 µM) in [8]; 11 to 20 µg/mL (≈ 24.3 to 44.1 µM) in data set [6].

`Cc1[nH]c(-c2ccc(-c3ccc(C(F)(F)F)cc3)o2)nc1-c1ccc(Cl)cc1` [compound 47]: in [1], the “Antibacterial activity Staphylococcus aureus (MRSA)” value was 3 (MIC100 of 3-10 μg/ml). Moreover, the MIC in data set [11], in [10], in data set [5] (setting [14]) and in [8] was 20 to 50 µg/mL (≈ 49.7 to 124 µM) in each case. The “Antibacterial activity, MS” value in data set [4] is 3 (MIC100 of 3-10 μg/ml).

In the case of `Cc1[nH]c(-c2ccc(-c3ccc(Cl)c(C(F)(F)F)c3)o2)nc1-c1ccccc1` [compound 39], the MIC in data set [10] was 20 to 50 µg/mL (≈ 49.7 to 124 µM); in data set [3], less than 1 µg/mL; in data set [5] (setting [14]), 20 to 50 µg/mL (≈ 49.7 to 124 µM); in data set [8] it was 20 to 50 µg/mL (≈ 49.7 to 124 µM).

For `Cc1nc(-c2ccc(-c3cccc(OC(F)(F)F)c3)o2)[nH]c1-c1ccc(F)cc1` [compound 37], the MIC in [10] was 20 to 50 µg/mL (≈ 49.7 to 124 µM); in data set [3] it was less than 1 µg/mL; in data set [5] (setting [14]) it was 20 to 50 µg/mL (≈ 49.7 to 124 µM); in data set [8], 20 to 50 µg/mL (≈ 49.7 to 124 µM). The “Antibacterial activity, MS” value in data set [4] was 2 (MIC100 of 11-20 μg/ml).

In the case of `Cc1[nH]c(-c2ccc(-c3ccccc3C(F)(F)F)o2)nc1-c1ccccc1` [compound 17], the MIC in data set [11] was in the range of 20 to 50 µg/mL (≈ 54.3 to 136 µM); in [3], 2 to 5 µg/mL (≈ 5.43 to 13.6 µM). Further, the “Antibacterial activity Streptococcus pneumoniae” value in data set [3] is recorded as 3 (MIC100 of 2-5 μg/ml).

For the compound `Cc1[nH]c(-c2ccc(-c3ccc(OC(F)(F)F)cc3)o2)nc1-c1ccc(Cl)cc1` [compound 48], the MIC in data set [10] was 20 to 50 µg/mL (≈ 47.8 to 119 µM); in [5] (setting [14]), 20 to 50 µg/mL (≈ 47.8 to 119 µM); in data set [8], 20 to 50 µg/mL (≈ 47.8 to 119 µM); in data set [6], 11 to 20 µg/mL (≈ 26.3 to 47.8 µM).

As for `Cc1nc(-c2ccc(-c3ccccc3OC(F)(F)F)o2)[nH]c1-c1cccc(Cl)c1` [compound 21], the “Antibacterial activity Staphylococcus aureus (MRSA)” value in data set [1] was 3 (MIC100 of 3-10 μg/ml). Further, the MIC in [1] was 3 to 10 µg/mL (≈ 7.16 to 23.9 µM); in data set [10], 20 to 50 µg/mL (≈ 47.8 to 119 µM); in data set [5] (setting [14]) it was 20 to 50 µg/mL (≈ 47.8 to 119 µM); in data set [12], 3 to 10 µg/mL (≈ 7.16 to 23.9 µM); in data set [8], 20 to 50 µg/mL (≈ 47.8 to 119 µM); in [13], 3 to 10 µg/mL (≈ 7.16 to 23.9 µM). In addition, the “Antibacterial activity Staphylococcus aureus (MSSA)” value in [2] (MIC class score, MIC100, broth microdilution, Newman strain) is 3 (MIC100 of 3-10 μg/ml).
